According to patent US11578079B2, “SUMO inhibitor compounds and uses thereof” (CITY OF HOPE, priority 2018, dated 2023):

Columns and labels:
c-Myc = c-Myc activity (Table I, biological activities); set-up: key: + (less active); ++ (active); +++ (most active)
SUMO = target: T1, SUMO (Homo sapiens, UniProt Q9UBT2); assay: SUMO activity (Table I, biological activities); format: biochemical; set-up: key: + (less active); ++ (active); +++ (most active)
T1 sequence (Q9UBT2 1-640): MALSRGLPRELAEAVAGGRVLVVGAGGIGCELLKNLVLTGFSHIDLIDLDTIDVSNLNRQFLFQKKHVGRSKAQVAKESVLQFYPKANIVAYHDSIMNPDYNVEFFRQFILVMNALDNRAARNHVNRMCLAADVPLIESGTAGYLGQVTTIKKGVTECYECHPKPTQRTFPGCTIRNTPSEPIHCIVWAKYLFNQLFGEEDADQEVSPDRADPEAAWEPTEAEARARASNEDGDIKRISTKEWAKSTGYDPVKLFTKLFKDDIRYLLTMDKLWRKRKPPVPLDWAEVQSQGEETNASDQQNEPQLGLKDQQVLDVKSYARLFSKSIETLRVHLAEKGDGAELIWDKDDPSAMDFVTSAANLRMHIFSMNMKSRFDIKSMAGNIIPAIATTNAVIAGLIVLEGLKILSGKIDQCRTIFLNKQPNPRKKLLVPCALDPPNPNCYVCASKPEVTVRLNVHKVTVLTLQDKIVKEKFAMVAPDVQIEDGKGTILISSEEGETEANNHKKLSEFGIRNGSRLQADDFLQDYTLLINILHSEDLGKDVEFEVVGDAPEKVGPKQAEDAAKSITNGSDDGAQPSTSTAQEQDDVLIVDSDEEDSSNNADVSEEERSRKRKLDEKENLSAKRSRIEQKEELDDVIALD
T1 sequence (Q9UBE0 1-346 partner): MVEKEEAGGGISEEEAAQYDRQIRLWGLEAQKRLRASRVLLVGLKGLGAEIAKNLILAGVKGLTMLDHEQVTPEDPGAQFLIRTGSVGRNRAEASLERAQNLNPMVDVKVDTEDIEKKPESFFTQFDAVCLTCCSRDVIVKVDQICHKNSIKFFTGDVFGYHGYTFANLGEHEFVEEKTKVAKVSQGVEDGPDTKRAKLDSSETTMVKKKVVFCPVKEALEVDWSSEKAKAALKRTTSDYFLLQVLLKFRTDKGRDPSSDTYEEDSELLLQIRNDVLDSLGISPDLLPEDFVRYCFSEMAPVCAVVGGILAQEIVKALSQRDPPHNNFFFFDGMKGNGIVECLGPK

Compound | SUMO (SUMO) | c-Myc (c-Myc)
COC(=O)C1=C(C(=O)NNc2ccccc2)C2C=CC1(C(Cc1ccccc1)Nc1cc(F)cc(Cl)c1)O2 (stereo not shown) [Compound 215] | ++ | +
COC(=O)C1=C(C(=O)OC)C2(C(Cc3ccc(Cl)cc3)Nc3cc(F)cc(F)c3)C=CC1O2 (stereo not shown) [Compound 425] | ++ | +
COC(=O)C1=C(C(=O)Nc2cccnc2)C2C=CC1(C(Cc1ccccc1)Nc1ccccc1)O2 (stereo not shown) [Compound 223] | ++ | +
COC(=O)C1=C(C(=O)OC)C2(C(Cc3ccccc3)Nc3cccc(Oc4ccccc4)c3)C=CC1O2 (stereo not shown) [Compound 307] | +++ | +
CCN(CC)CCNC(=O)C1=C(C(=O)OC)C2(C(Cc3ccccc3)Nc3c(F)cccc3F)C=CC1O2 (stereo not shown) [Compound 433] | ++ | +
COC(=O)CNC(=O)C1=C(C(=O)OC)C2(C(Cc3ccccc3)Nc3cc(F)cc(F)c3)C=CC1O2 (stereo not shown) [Compound 245] | +++ | ++
COC(=O)C1=C(C(=O)NCCN(C)C)C2C=CC1(C(Cc1ccccc1F)Nc1cc(F)cc(F)c1)O2 (stereo not shown) [Compound 455] | ++ | ++
COC(=O)C1=C(C(=O)NCCN(C)C)C2C=CC1(C(Cc1ccccc1)Nc1ccc(F)cc1F)O2 (stereo not shown) [Compound 409] | ++ | ++
COCCN1CCC(NC(=O)C2=C(C(=O)OC)C3(C(Cc4ccccc4)Nc4ccccc4)C=CC2O3)CC1 (stereo not shown) [Compound 278] | +++ | ++
COCCNC(=O)C1=C(C(=O)OC)C2(C(Cc3ccccc3)Nc3ccccc3)C=CC1O2 (stereo not shown) [Compound 403] | ++ | +
COC(=O)C1=C(C(=O)NC2CCN(S(C)(=O)=O)CC2)C2C=CC1(C(Cc1ccccc1)Nc1ccccc1)O2 (stereo not shown) [Compound 361] | ++ | +
CCOC(=O)C1=C(C(F)(F)F)C2(C(Cc3ccccc3)Nc3ccccc3)C=CC1O2 (stereo not shown) [Compound 298] | ++ | +
COC(=O)C1=C(C(=O)NC2CCN(C(=O)CN(C)C)CC2)C2C=CC1(C(Cc1ccccc1)Nc1ccccc1)O2 (stereo not shown) [Compound 385] | ++ | +
CCN(CC)CCNC(=O)C1=C(C(=O)OC)C2(C(Cc3ccc(F)cc3)Nc3cc(F)cc(Cl)c3)C=CC1O2 (stereo not shown) [Compound 453] | ++ | +
CCOC(=O)C1=C(C(F)(F)F)C2(C(Cc3ccccc3)Oc3ccccc3)C=CC1O2 (stereo not shown) [Compound 513] | ++ | ++
COC(=O)C1=C(C(=O)NNc2ccccc2)C2C=CC1(C(Cc1ccccc1)Nc1cc(F)cc(F)c1)O2 (stereo not shown) [Compound 205] | ++ | ++
COC(=O)C1=C(C(=O)NC2CCN(C)CC2)C2C=CC1(C(Cc1ccccc1)Nc1ccccc1)O2 (stereo not shown) [Compound 195] | +++ | ++
COC(=O)C1=C(C(=O)Nc2ccc(C)nc2)C2C=CC1(C(Cc1ccccc1)Oc1ccccc1)O2 (stereo not shown) [Compound 333] | + | +
COC(=O)C1=C(C(=O)OC)C2(C(CCc3ccccc3)Nc3ccccc3)C=CC1O2 (stereo not shown) [Compound 191] | ++ | +
CCOC(=O)C1=CC2OC1(C(Nc1ccccc1)c1ccccc1)c1ccccc12 (stereo not shown) [Compound 625] | + | +
COC(=O)C1=C(C(=O)NC2CCN(C(C)C)CC2)C2C=CC1(C(Cc1ccccc1)Nc1ccccc1)O2 (stereo not shown) [Compound 277] | +++ | ++
CC12C=CC(C(Cc3ccccc3)Nc3ccccc3)(C=C1C(=O)c1ccc(F)cc1)O2 (stereo not shown) [Compound 526] | + | +
COC(=O)C1=C(C(=O)NC2CN(C(=O)OC(C)(C)C)C2)C2C=CC1(C(Cc1ccccc1)Nc1ccccc1)O2 (stereo not shown) [Compound 404] | ++ | +
COC(=O)C1=C(C(=O)NC2CCN(C(=O)c3ccc(Cl)s3)CC2)C2C=CC1(C(Cc1ccccc1)Nc1ccccc1)O2 (stereo not shown) [Compound 392] | ++ | +
COC(=O)C1=C(C(=O)OC)C2(C(Cc3ccccc3)N(C(=O)C(F)(F)F)c3ccccc3)OC1C1=C2O1 (stereo not shown) [Compound 555] | + | +
COC(=O)C1=C(C(=O)Nc2ccccc2C)C2C=CC1(C(Cc1ccccc1)Nc1ccccc1)O2 (stereo not shown) [Compound 360] | ++ | +
COC(=O)C1=C(C(=O)NCCN(C)C)C2C=CC1(C(Cc1ccccc1)Nc1ccccc1)O2 (stereo not shown) [Compound 224] | +++ | ++
O=C(C1=CC2(C(Cc3ccccc3)Nc3ccccc3)C=CC1O2)c1ccc(F)cc1 (stereo not shown) [Compound 525] | + | +
CC#CC(Nc1ccccc1)C12C=CC(O1)C(C(=O)OC)=C2C(=O)OC (stereo not shown) [Compound 172] | ++ | ++

Now from value to compound, other results behind:

SUMO (SUMO) | Compound | c-Myc (c-Myc)
+++ | COC(=O)C1=C(C(=O)Nc2ccc(OCCN3CCOCC3)cc2)C2C=CC1(C(Cc1ccccc1)Nc1ccccc1)O2 (stereo not shown) [Compound 502] | +
++ | COC(=O)C1=C(C(=O)NC2CCN(C(=O)c3cccc(F)c3)CC2)C2C=CC1(C(Cc1ccccc1)Nc1ccccc1)O2 (stereo not shown) [Compound 386] | +
++ | COC(=O)C1=C(C(=O)Nc2ccc(F)cc2)C2C=CC1(C(Cc1ccccc1)Nc1ccccc1)O2 (stereo not shown) [Compound 166] | +
++ | COC(=O)C1=C(C(=O)Nc2ccc(C)c(F)c2)C2C=CC1(C(Cc1ccccc1)Nc1ccccc1)O2 (stereo not shown) [Compound 285] | ++
++ | CCOC(=O)C1=C(C(=O)NCCN(C)C)C2C=CC1(C(Cc1ccccc1)Nc1ccc(F)cc1F)O2 (stereo not shown) [Compound 411] | +
++ | COC(=O)C1=C(C(=O)NCCN(C)C)C2C=CC1(C(Cc1ccc(F)cc1)Nc1cc(F)cc(Cl)c1)O2 (stereo not shown) [Compound 452] | +
++ | COC(=O)C1=C(C(=O)NC2CCN(C)CC2)C2C=CC1(C(Cc1ccccc1)Nc1cc(F)cc(Cl)c1)O2 (stereo not shown) [Compound 219] | ++
++ | COC(=O)C1=C(C(=O)NC2CCN(C)CC2)C2C=CC1(C(Cc1ccc(C(F)(F)F)cc1)Nc1ccccc1)O2 (stereo not shown) [Compound 488] | ++
++ | COC(=O)C1=C(C(=O)NC2CCN(C(=O)c3ccc(Cl)cc3)CC2)C2C=CC1(C(Cc1ccccc1)Nc1ccccc1)O2 (stereo not shown) [Compound 380] | +
++ | CCOC(=O)C1=C(C(=O)Nc2ccccc2)C2C=CC1(C(Nc1ccccc1)c1ccc(CN3CCOCC3)cc1)O2 (stereo not shown) [Compound 604] | +
+++ | COC(=O)C1=C(C(=O)Nc2ccc(OC)cc2)C2C=CC1(C(Cc1ccccc1)Nc1cccc(Oc3ccccc3)c1)O2 (stereo not shown) [Compound 321] | +
+ | CCOC(=O)C1=C(C(=O)Nc2ccc(OC)cc2OC)C2C=CC1(C(Nc1ccccc1)c1ccc(CN3CCOCC3)cc1)O2 (stereo not shown) [Compound 610] | +
++ | COC(=O)C1=C(C(=O)Nc2ccc(OC)cc2)C2C=CC1(C(Cc1ccccc1)Oc1ccccc1)O2 (stereo not shown) [Compound 325] | ++
++ | COC(=O)C1=C(C(=O)Nc2cccc(F)c2C)C2C=CC1(C(Cc1ccccc1)Nc1ccccc1)O2 (stereo not shown) [Compound 359] | +
+++ | COC(=O)C1=C(C(=O)Nc2ccc(OC)cc2)C2C=CC1(C(Cc1ccccc1)Nc1cc(F)cc(F)c1)O2 (stereo not shown) [Compound 204] | +
+++ | COC(=O)C1=C(C(=O)NC2CCN(C)C2)C2C=CC1(C(Cc1ccccc1)Nc1ccc(F)cc1)O2 (stereo not shown) [Compound 263] | ++
+++ | COC(=O)C1=C(C(=O)NCCN2CCCC2)C2C=CC1(C(Cc1ccccc1)Nc1ccc(F)cc1)O2 (stereo not shown) [Compound 443] | ++
++ | COC(=O)C1=C(C(=O)NCCN(C)C)C2C=CC1(C(Cc1ccccc1)Nc1cccc(F)c1)O2 (stereo not shown) [Compound 420] | ++
++ | CCOC(=O)C1=C(C(=O)Nc2ccc(C)c(F)c2)C2C=CC1(C(Nc1cccc(C)c1)c1ccc(CN3CCOCC3)cc1)O2 (stereo not shown) [Compound 623] | +
+ | CCOC(=O)C1=C(C(=O)Nc2ccc(Oc3ccccc3)cc2)C2C=CC1(C(Nc1ccccc1)c1ccc(CN3CCOCC3)cc1)O2 (stereo not shown) [Compound 569] | +
+ | CCOC(=O)C1=C(C(=O)Nc2ccc(OC)cc2)C2(C)C=CC1(C(Nc1ccccc1)c1ccc(CN3CCOCC3)cc1)O2 (stereo not shown) [Compound 581] | +
